Measurements published in PubChem BioAssay (NCI).
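Compound exposure: 48 hours, 5 concentrations, 96-well plates. Abbreviation: GI50, concentration required for 50% inhibition of growth. TGI marks complete inhibition of growth.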

Assays:
Assay in all cases: DTP human tumour cell line panel, 48 h
[1] = tested on: 786-0 renal
[2] = tested on: A498 renal
[3] = tested on: A549 NSCLC
[4] = tested on: ACHN renal
[5] = tested on: BT-549 breast
[6] = tested on: CAKI-1 renal
[7] = tested on: CCRF-CEM leukemia
[8] = tested on: COLO 205 colon
[9] = tested on: DU-145 prostate
[10] = tested on: EKVX NSCLC
[11] = tested on: HCC-2998 colon
[12] = tested on: HCT-116 colon
[13] = tested on: HCT-15 colon
[14] = tested on: HL-60(TB) leukemia
[15] = tested on: HOP-62 NSCLC
[16] = tested on: HOP-92 NSCLC
[17] = tested on: HS 578T breast
[18] = tested on: HT29 colon
[19] = tested on: IGROV1 ovarian
[20] = tested on: K-562 leukemia
[21] = tested on: KM12 colon
[22] = tested on: LOX IMVI melanoma
[23] = tested on: M14 melanoma
[24] = tested on: MALME-3M melanoma
[25] = tested on: MCF7 breast
[26] = tested on: MDA-MB-231 breast
[27] = tested on: MDA-MB-435
[28] = tested on: MOLT-4 leukemia
[29] = tested on: NCI-H226 lung
[30] = tested on: NCI-H23 lung
[31] = tested on: NCI-H460 lung
[32] = tested on: NCI/ADR-RES ovarian
[33] = tested on: OVCAR-3 ovarian
[34] = tested on: OVCAR-4 ovarian
[35] = tested on: OVCAR-5 ovarian
[36] = tested on: OVCAR-8 ovarian
[37] = tested on: PC-3 prostate
[38] = tested on: RPMI-8226 leukemia
[39] = tested on: RXF 393 renal
[40] = tested on: SF-268 CNS
[41] = tested on: SF-295 CNS
[42] = tested on: SF-539 CNS
[43] = tested on: SK-MEL-2 melanoma
[44] = tested on: SK-MEL-5 melanoma
[45] = tested on: SK-OV-3 ovarian
[46] = tested on: SN12C renal
[47] = tested on: SNB-19 CNS
[48] = tested on: SNB-75 CNS
[49] = tested on: SR leukemia
[50] = tested on: SW-620 colon
[51] = tested on: T-47D breast
[52] = tested on: TK-10 renal
[53] = tested on: U251 CNS
[54] = tested on: UACC-257 melanoma
[55] = tested on: UACC-62 melanoma
[56] = tested on: UO-31 renal
[57] = tested on: NCI-H522 lung
[58] = tested on: SK-MEL-28 melanoma

For `COc1ccc(C(=S)c2cc(OC)c(OC)c(OC)c2)cc1OC(=O)CCl`, the GI50 [1] was 183 nM, the TGI [1] was greater than 100 µM and the GI50 [2] was 179 nM. The TGI [2] was 2500 nM, the GI50 [3] was 0.0849 µM and the TGI [3] was greater than 100 µM. For the same compound, the GI50 [4] was 0.0214 µM, the TGI [4] was 61.5 µM and the GI50 [5] was less than 0.0175 µM. For the same compound, the TGI [5] was 922 nM, the GI50 [6] was 0.0449 µM and the TGI [6] was 52.1 µM. For the same compound, the GI50 [7] was less than 0.0167 µM, the TGI [7] was greater than 100 µM and the GI50 [8] was 1.3 µM. It also gave a TGI [8] of 17 µM, a GI50 [9] of 0.0311 µM and a TGI [9] greater than 100 µM. It also gave a GI50 [10] of 0.652 µM, a TGI [10] greater than 100 µM and a GI50 [11] of 0.0418 µM. The TGI [11] was greater than 100 µM, the GI50 [12] was less than 0.0174 µM and the TGI [12] was greater than 100 µM. It also gave a GI50 [13] of less than 0.01 µM, a TGI [13] greater than 100 µM and a GI50 [14] of less than 0.0129 µM. For the same compound, the TGI [14] was less than 0.0218 µM, the GI50 [15] was 0.0614 µM and the TGI [15] was greater than 100 µM. The GI50 [16] was 0.55 µM, the TGI [16] was greater than 100 µM and the GI50 [17] was 0.023 µM. The TGI [17] was greater than 100 µM, the GI50 [18] was 1.99 µM and the TGI [18] was greater than 100 µM. The GI50 [19] was 0.0499 µM, the TGI [19] was greater than 100 µM and the GI50 [20] was less than 0.01 µM. The TGI [20] was greater than 100 µM, the GI50 [21] was less than 0.01 µM and the TGI [21] was greater than 100 µM. It also gave a GI50 [22] of 0.0102 µM, a TGI [22] greater than 100 µM and a GI50 [23] of less than 0.0125 µM. For the same compound, the TGI [23] was greater than 49.6 µM, the GI50 [24] was 0.58 µM and the TGI [24] was greater than 76.6 µM. For the same compound, the GI50 [25] was less than 0.0156 µM, the TGI [25] was 43.5 µM and the GI50 [26] was 0.0253 µM. For the same compound, the GI50 [27] was less than 0.01 µM, the TGI [27] was less than 0.0108 µM and the GI50 [28] was less than 0.0186 µM. For the same compound, the TGI [28] was greater than 100 µM, the GI50 [29] was 2.77 µM and the TGI [29] was greater than 100 µM. It also gave a GI50 [30] of 0.051 µM, a TGI [30] greater than 100 µM and a GI50 [31] of 0.0301 µM. The TGI [31] was 12.9 µM, the GI50 [32] was less than 0.0127 µM and the TGI [32] was greater than 100 µM. For the same compound, the GI50 [33] was 0.0227 µM, the TGI [33] was 0.0813 µM and the GI50 [34] was 0.073 µM. The TGI [34] was greater than 100 µM, the GI50 [35] was 3.32 µM and the TGI [35] was greater than 100 µM. For the same compound, the GI50 [36] was 0.0355 µM, the TGI [36] was greater than 100 µM and the GI50 [37] was less than 0.0172 µM. For the same compound, the TGI [37] was greater than 100 µM, the GI50 [38] was less than 0.0196 µM and the TGI [38] was 25.2 µM. For the same compound, the GI50 [39] was 0.022 µM, the TGI [39] was greater than 77.3 µM and the GI50 [40] was 0.054 µM. For the same compound, the TGI [40] was greater than 100 µM, the GI50 [41] was 0.0356 µM and the TGI [41] was greater than 100 µM. The GI50 [42] was less than 0.011 µM, the TGI [42] was 0.0499 µM and the GI50 [43] was 33.1 µM. It also gave a TGI [43] greater than 100 µM, a GI50 [44] of 0.0141 µM and a TGI [44] of 61.6 nM. For the same compound, the GI50 [45] was 0.0684 µM, the TGI [45] was greater than 100 µM and the GI50 [46] was 0.0241 µM. It also gave a TGI [46] greater than 100 µM, a GI50 [47] of less than 0.0207 µM and a TGI [47] greater than 100 µM. It also gave a GI50 [48] of less than 0.0114 µM, a TGI [48] greater than 100 µM and a GI50 [49] of less than 0.01 µM. For the same compound, the TGI [49] was greater than 100 µM, the GI50 [50] was less than 0.0146 µM and the TGI [50] was greater than 100 µM. The GI50 [51] was 22.1 µM, the TGI [51] was 79.9 µM and the GI50 [52] was 32.6 µM. The TGI [52] was greater than 100 µM, the GI50 [53] was 0.0341 µM and the TGI [53] was greater than 100 µM. It also gave a GI50 [54] greater than 100 µM, a TGI [54] greater than 100 µM and a GI50 [55] of 0.0391 µM. For the same compound, the TGI [55] was greater than 100 µM, the GI50 [56] was 144 nM and the TGI [56] was greater than 95.7 µM.
`COc1ccc(C(=O)/C=C/c2cc3ccccc3[nH]c2=O)cc1` showed a TGI [1] greater than 37.4 µM, a GI50 [2] greater than 38400 nM and a TGI [2] greater than 100000 nM. For the same compound, the GI50 [3] was 20 µM, the TGI [3] was greater than 100 µM and the GI50 [4] was 22.9 µM. The TGI [4] was greater than 55.1 µM, the GI50 [5] was 20.2 µM and the TGI [5] was greater than 42900 nM. The GI50 [6] was 14.9 µM, the TGI [6] was 28.2 µM and the GI50 [7] was 22.3 µM. It also gave a TGI [7] greater than 100 µM, a GI50 [8] of 18.5 µM and a TGI [8] of 35.3 µM. The GI50 [9] was 17.8 µM, the TGI [9] was 41.9 µM and the GI50 [10] was 22.6 µM. For the same compound, the TGI [10] was greater than 94.3 µM, the GI50 [11] was 17.3 µM and the TGI [11] was 31.3 µM. It also gave a GI50 [12] of 14.7 µM, a TGI [12] of 24.8 µM and a GI50 [13] of 20.3 µM. It also gave a TGI [13] greater than 59.6 µM, a GI50 [14] of 21.9 µM and a TGI [14] greater than 100 µM. For the same compound, the GI50 [15] was 20.5 µM, the TGI [15] was 42.6 µM and the GI50 [16] was 17 µM. It also gave a TGI [16] of 37.3 µM, a GI50 [17] of 20.8 µM and a TGI [17] greater than 100 µM. It also gave a GI50 [18] of 19.3 µM, a TGI [18] greater than 80.5 µM and a GI50 [19] of 28.6 µM. For the same compound, the TGI [19] was 97.6 µM, the GI50 [20] was greater than 57.6 µM and the TGI [20] was greater than 100 µM. The GI50 [21] was 16.5 µM, the TGI [21] was 28.7 µM and the GI50 [22] was 13.7 µM. The TGI [22] was 25.4 µM, the GI50 [23] was 19.3 µM and the TGI [23] was 47.2 µM. It also gave a GI50 [24] of 40.8 µM, a TGI [24] greater than 100 µM and a GI50 [25] of 18.8 µM. It also gave a TGI [25] greater than 96.1 µM, a GI50 [26] of 22.3 µM and a TGI [26] greater than 56.4 µM. The GI50 [27] was 21.2 µM, the TGI [27] was greater than 55.8 µM and the GI50 [28] was 22.2 µM. For the same compound, the TGI [28] was greater than 100 µM, the GI50 [29] was 22.1 µM and the TGI [29] was greater than 100 µM. For the same compound, the GI50 [30] was 19.7 µM, the TGI [30] was greater than 53 µM and the GI50 [31] was 19.8 µM. The TGI [31] was greater than 43.4 µM, the GI50 [57] was 13.5 µM and the TGI [57] was 24.5 µM. It also gave a GI50 [32] of 18.9 µM, a TGI [32] of 42.9 µM and a GI50 [33] of 17.9 µM. The TGI [33] was 36.4 µM, the GI50 [34] was 19.5 µM and the TGI [34] was greater than 100 µM. For the same compound, the GI50 [35] was 21.9 µM, the TGI [35] was greater than 56.8 µM and the GI50 [36] was 21.7 µM. It also gave a TGI [36] greater than 100 µM, a GI50 [37] greater than 59.7 µM and a TGI [37] greater than 100 µM. The GI50 [38] was 18.4 µM, the TGI [38] was greater than 100 µM and the GI50 [39] was 19.7 µM. The TGI [39] was greater than 44 µM, the GI50 [40] was 18.1 µM and the TGI [40] was 43 µM. It also gave a GI50 [41] of 20.3 µM, a TGI [41] greater than 57.1 µM and a GI50 [42] of 18.7 µM. The TGI [42] was 39.8 µM, the GI50 [43] was 23 µM and the TGI [43] was greater than 73.8 µM. For the same compound, the GI50 [58] was 33.9 µM, the TGI [58] was greater than 67.4 µM and the GI50 [44] was 25 µM. It also gave a TGI [44] greater than 56600 nM, a GI50 [45] of 22.7 µM and a TGI [45] greater than 91.6 µM. The GI50 [46] was 21.1 µM, the TGI [46] was greater than 100 µM and the GI50 [47] was 23.2 µM. The TGI [47] was greater than 57.5 µM, the GI50 [48] was 15.3 µM and the TGI [48] was 34.8 µM. It also gave a GI50 [49] of 17.3 µM, a TGI [49] greater than 100 µM and a GI50 [50] of 18.4 µM. It also gave a TGI [50] of 33.2 µM, a GI50 [51] of 18.8 µM and a TGI [51] greater than 100 µM. For the same compound, the GI50 [52] was 20.9 µM, the TGI [52] was greater than 100 µM and the GI50 [53] was 17.5 µM. The TGI [53] was 43 µM, the GI50 [54] was 25.5 µM and the TGI [54] was greater than 56.5 µM. For the same compound, the GI50 [55] was 24.4 µM, the TGI [55] was greater than 57.8 µM and the GI50 [56] was greater than 100000 nM. For the same compound, the TGI [56] was greater than 100 µM.
